The text below walks through data of US9475766B2, “Substituted aromatic sulfur compounds and methods of their use” (Cephalon, Inc., priority 2011, dated 2016).

Common to all, as to assay type: cell-based
Test [1] concerns SU86 pancreatic cancer cell line (Su.86.86). Description: Cell survival and adhesion assay (luciferase), SU86. The settings on record: 5 hours, SU86 cells overlayed onto human mesothelial cell monolayers, read-out: relative reduction in Luciferase activity, SU86 10 μM. How it is done:
(§1) SU86 is a pancreatic cancer cell line. HT29 is a colon cancer cell line. BxPC3 is a pancreatic cell line. A2780 is an ovarian cancer cell line.
(§2) BxPc-3 and Su.86.86 pancreatic and HT-29 colon and A2780 ovarian cancer cell lines were purchased from ATCC and cultured in DMEM supplemented with 10% fetal bovine serum, glutamine, penicillin, and streptomycin. All cells were cultured at 37° C. in a humidified incubator in a 5% CO2 atmosphere. The cancer cell lines were transduced with a retrovirus containing pLuc-puro, a constitutive luciferase reporter and selected in […] media. Transient transfection of a full-length human c-FLIP construct in the vector pcDNA3 was performed as previously described. Scaife et al. Cancer Research 2002, 62: 6870-78.
(§3) Pancreatic cancer cell cultures (BxPc-3 and Su.86.86) and colon cancer (HT-29) and ovarian cancer (A2780) cells that were stably transfected with a firefly luciferase construct were transiently suspended with trypsin-PBS. 10^5 cells were overlayed onto confluent monolayers of human mesothelial cells in 96-well plates while simultaneously adding various concentrations of compounds of the invention or DMSO for 5 hours. The non-adherent cells were carefully washed away from the wells twice with 100 μl/well of blocking buffer (1% BSA in PBS) and twice again with ice-cold PBS. Adherent and surviving cells were detected by luciferase activity in a luminometer as follows. The cells were lysed in 0.1% TritonX-100, 25 mM Gly-Gly (7.8), MgSO4, 4 mM EGTA, 1 mM DTT. The total protein concentration was normalized with lysis buffer. 50 μl of cell lysate was added per well of a 96-well microtiter plate. 50 μl of luciferin substrate (Promega) was added per well and then the light output determined in a luminometer.

The test system of test [2] is BxPC3 pancreatic cell line. Kind of test: Cell survival and adhesion assay (luciferase), BxPC3. The settings on record: BXPC-3, 5 hours, BxPC3 cells overlayed onto human mesothelial cell monolayers, read-out: relative reduction in Luciferase activity, BxPC3 10 μM. How it is done: as §1, §2, §3
Test [3] has as its system A2780 ovarian cancer cell line. Description: Cell survival and adhesion assay (luciferase), A2780. The settings on record: 5 hours, A2780 cells overlayed onto human mesothelial cell monolayers, read-out: relative reduction in Luciferase activity, A2780 10 μM. As to the method:
as §1, §2, §3

Test [4] relates to HT29 colon cancer cell line. Kind of test: Cell survival and adhesion assay (luciferase), HT29. To be noted: HT-29, 5 hours, HT29 cells overlayed onto human mesothelial cell monolayers, read-out: relative reduction in Luciferase activity, HT29 10 μM. As to the method:
as §1, §2, §3

Some results are limits rather than exact numbers.

On to `CN(Cc1ccccc1)C(=O)C(C)(C)c1ccc(S(=O)(=O)/C=C/C#N)cc1` [Example 22, N-Benzyl-2-[4-((E)-2-cyano-ethenesulfonyl)-phenyl]-N-methyl-isobutyramide], for which the inhibition at 10 µM is 50 to 85% in test [1], above 85% in test [2] and above 85% in test [3].

Take `CC(C)(C(=O)NCCc1ccccc1)c1ccc(S(=O)(=O)/C=C/C#N)cc1` [Example 24, 2-[4-((E)-2-Cyano-ethenesulfonyl)-phenyl]-N-phenethyl-isobutyramide]: the figures for the inhibition at 10 µM in test [1], in test [2] and in test [3] were 50 to 85%, 50 to 85% and above 85%, respectively.

`COc1cccc(NC(=O)C(C)(C)c2ccc(S(=O)(=O)/C=C/C#N)cc2)c1` [Example 25, 2-[4-((E)-2-Cyano-ethenesulfonyl)-phenyl]-N-(3-methoxy-phenyl)-isobutyramide]: the figures for the inhibition at 10 µM in test [1], in test [2] and in test [3] were 50 to 85%, 50 to 85% and above 85%, respectively.

As for `CC(C)(C(=O)NCc1ccc(S(N)(=O)=O)cc1)c1ccc(S(=O)(=O)/C=C/C#N)cc1` [Example 26, 2-[4-((E)-2-Cyano-ethenesulfonyl)-phenyl]-N-(4-sulfamoyl-benzyl)-isobutyramide], the inhibition at 10 µM in test [1], in test [4] and in test [2] was below 10% in each case.

As for `CC(C)(C(=O)NCc1ccc(S(C)(=O)=O)cc1)c1ccc(S(=O)(=O)/C=C/C#N)cc1` [Example 27, 2-[4-((E)-2-Cyano-ethenesulfonyl)-phenyl]-N-(4-methanesulfonyl-benzyl)-isobutyramide], the inhibition at 10 µM in test [1] was below 10%; in test [4] it was 10 to 50%; in test [2] it was below 10%.

As for `CC(C)(C(=O)N1CCCCC1)c1ccc(S(=O)(=O)/C=C/C#N)cc1` [Example 28, (E)-3-[4-(1,1-Dimethyl-2-oxo-2-piperidin-1-yl-ethyl)-benzenesulfonyl]-acrylonitrile], the inhibition at 10 µM in test [1] is 10 to 50%; in test [4], above 85%; in test [2], 50 to 85%.

For the compound `CC(C)(C(=O)N[C@H](CO)c1ccccc1)c1ccc(S(=O)(=O)/C=C/C#N)cc1` [Example 29, 2-[4-((E)-2-Cyano-ethenesulfonyl)-phenyl]-N—((S)-2-hydroxy-1-phenyl-ethyl)-isobutyramide], the results for the inhibition at 10 µM in test [1], in test [4] and in test [2] were below 10%, 50 to 85% and below 10%, respectively.

Take `CC(C)(C(=O)N[C@H]1CCCCNC1=O)c1ccc(S(=O)(=O)/C=C/C#N)cc1` [Example 30, 2-[4-((E)-2-Cyano-ethenesulfonyl)-phenyl]-N—((S)-2-oxo-azepan-3-yl)-isobutyramide]: the inhibition at 10 µM in test [1] is below 10%; in test [4], 50 to 85%; in test [2] it was below 10%.

`COCCOCc1ccc(NC(=O)C(C)(C)c2ccc(S(=O)(=O)/C=C/C#N)cc2)cc1` [Example 31, 2-[4-((E)-2-Cyano-ethenesulfonyl)-phenyl]-N-[4-(2-methoxy-ethoxymethyl)-phenyl]-isobutyramide]: the inhibition at 10 µM in test [1] was 10 to 50%; in test [4], 50 to 85%; in test [2], 50 to 85%.

Regarding `CC(C)(C)OC(=O)NCCNC(=O)C(C)(C)c1ccc(S(=O)(=O)/C=C/C#N)cc1` [Example 32, (2-{2-[4-((E)-2-Cyano-ethenesulfonyl)-phenyl]-2-methyl-propionylamino}-ethyl)-carbamic acid tert-butyl ester], the figures for the inhibition at 10 µM in test [1], in test [4] and in test [2] were 10 to 50%, 50 to 85% and 10 to 50%, respectively.

For the compound `CC(C)(C)OC(=O)NCCCCCCNC(=O)C(C)(C)c1ccc(S(=O)(=O)/C=C/C#N)cc1` [Example 33, (6-{2-[4-((E)-2-Cyano-ethenesulfonyl)-phenyl]-2-methyl-propionylamino}-hexyl)-carbamic acid tert-butyl ester], the inhibition at 10 µM is below 10% in test [1], 50 to 85% in test [4] and 10 to 50% in test [2].

Regarding `CC(C)(C(=O)NCc1ccccc1F)c1ccc(S(=O)(=O)/C=C/C#N)cc1` [Example 40, 2-[4-((E)-2-Cyano-ethenesulfonyl)-phenyl]-N-(2-fluoro-benzyl)-isobutyramide], the inhibition at 10 µM in test [1] was 50 to 85%; in test [4], above 85%; in test [2], above 85%.

For the compound `CN(Cc1ccc(F)cc1)C(=O)C(C)(C)c1ccc(S(=O)(=O)/C=C/C#N)cc1` [Example 41, 2-[4-((E)-2-Cyano-ethenesulfonyl)-phenyl]-N-(4-fluoro-benzyl)-N-methyl-isobutyramide], the inhibition at 10 µM is 50 to 85% in test [1], above 85% in test [4] and above 85% in test [2].

As for `COCCOc1cccc(NC(=O)C(C)(C)c2ccc(S(=O)(=O)/C=C/C#N)cc2)c1` [Example 42, 2-[4-((E)-2-Cyano-ethenesulfonyl)-phenyl]-N-[3-(2-methoxy-ethoxy)-phenyl]-isobutyramide], the inhibition at 10 µM is 50 to 85% in test [1], above 85% in test [4] and 50 to 85% in test [2].

With `CC(C)(C(=O)Nc1cccc(OCC(=O)O)c1)c1ccc(S(=O)(=O)/C=C/C#N)cc1` [Example 43, (3-{2-[4-((E)-2-Cyano-ethenesulfonyl)-phenyl]-2-methyl-propionylamino}-phenoxy)-acetic acid], the inhibition at 10 µM in test [1], in test [4] and in test [2] was below 10% each time.

On to `COc1cccc(CNC(=O)C(C)(C)c2ccc(S(=O)(=O)/C=C/C#N)cc2)c1` [Example 44, 2-[4-((E)-2-Cyano-ethenesulfonyl)-phenyl]-N-(3-methoxy-benzyl)-isobutyramide], for which the inhibition at 10 µM is 50 to 85% in test [1], above 85% in test [4] and above 85% in test [2].

With `COc1ccccc1CNC(=O)C(C)(C)c1ccc(S(=O)(=O)/C=C/C#N)cc1` [Example 45, 2-[4-((E)-2-Cyano-ethenesulfonyl)-phenyl]-N-(2-methoxy-benzyl)-isobutyramide], the inhibition at 10 µM in test [1] was 50 to 85%; in test [4], above 85%; in test [2], above 85%.

With `COc1ccccc1CN(C)C(=O)C(C)(C)c1ccc(S(=O)(=O)/C=C/C#N)cc1` [Example 46, 2-[4-((E)-2-Cyano-ethenesulfonyl)-phenyl]-N-(2-methoxy-benzyl)-N-methyl-isobutyramide], the results for the inhibition at 10 µM in test [1], in test [4] and in test [2] were 50 to 85%, above 85% and above 85%, respectively.

Regarding `CC(C)(c1ccc(S(=O)(=O)/C=C/C#N)cc1)c1nnc(Nc2ccccc2)o1` [Example 47, (E)-3-{4-[1-Methyl-1-(5-phenylamino-[1,3,4]oxadiazol-2-yl)-ethyl]-benzenesulfonyl}-acrylonitrile], the inhibition at 10 µM in test [1] lay in the range of 10 to 50%; in test [2], 50 to 85%; in test [3] it was 50 to 85%.

For `CCNc1nnc(C(C)(C)c2ccc(S(=O)(=O)/C=C/C#N)cc2)o1` [Example 48, (E)-3-{4-[1-(5-Ethylamino-[1,3,4]oxadiazol-2-yl)-1-methyl-ethyl]-benzenesulfonyl}-acrylonitrile], the inhibition at 10 µM is below 10% in test [1], below 10% in test [2] and 10 to 50% in test [3].

Turning to `CC(C)(c1ccc(S(=O)(=O)/C=C/C#N)cc1)c1nc2ccccc2[nH]1` [Example 49, (E)-3-{4-[1-(1H-Benzimidazol-2-yl)-1-methyl-ethyl]-benzenesulfonyl}-acrylonitrile], the inhibition at 10 µM in test [1], in test [2] and in test [3] was below 10% throughout.

`Cc1ccc2oc(C(C)(C)c3ccc(S(=O)(=O)/C=C/C#N)cc3)nc2c1` [Example 50, (E)-3-{4-[1-Methyl-1-(5-methyl-benzoxazol-2-yl)-ethyl]-benzenesulfonyl}-acrylonitrile]: the figures for the inhibition at 10 µM in test [1], in test [4] and in test [2] were 50 to 85%, above 85% and above 85%, respectively.

With `Cc1cnc(C(C)(C)c2ccc(S(=O)(=O)/C=C/C#N)cc2)o1` [Example 51, (E)-3-{4-[1-Methyl-1-(5-methyl-oxazol-2-yl)-ethyl]-benzenesulfonyl}-acrylonitrile], the figures for the inhibition at 10 µM in test [1], in test [4] and in test [2] were 50 to 85%, above 85% and above 85%, respectively.
